Measured values reported in patent US9585393B2, “Saflufenacil, flumioxazin, and 2,4-D weed control compositions and methods of use thereof” (Valent U.S.A., Corporation, priority 2014, dated 2017).

Columns and labels:
[1] = test system: Horseweed; test: Field test, post emergence weed control: Horseweed; assay type: in vivo, Conyza Canadensis; details: for Effect on Weeds, Plants: Horseweed: 11 DAT, MSO 1% v/v; for control (Actual % Control) / % Alone: Horseweed; for control (Actual % Control): rounded Table 1 values, saflufenacil 0.011, flumioxazin 0.064, 2,4-D 0.5 lb ai/acre as present; for % Alone: synergy calculation, each component alone (saflufenacil 0.011, 2,4-D 0.5, flumioxazin 0.064 lb ai/acre)
Procedure: (§1) The following field test was conducted during spring in Mississippi. Sharpen® was used in the test as the source of saflufenacil. Valor® was used in the test as the source of flumioxazin. Roundup Ready soybeans (Glycine max) were used in the test as the crop plant. All of the treatments contained MSO concentrate oil at 1% v/v.
(§2) When the test began, the test plot had Horseweed that was 6 to 20 inches tall. Applications were administered at the concentrations as follows. Saflufenacil was administered at 0.011, 0.017 or 0.022 lb ai/acre (indicated in the table as “S” followed by the amount). Flumioxazin was administered at 0.064 lb ai/acre, and 2,4-D was administered at 0.5 lb ai/acre throughout the experiment. Three days after the treatment (3 DAT), soybeans were planted across the front of the plot. On 7 DAT, another pass of soybeans was planted across the front of the plot with a 30 inch planter. Each test was
(§3) On 11 DAT, readings were taken to determine the survival of Horseweed and Crabgrass. On 12 DAT, readings were taken to determine the survival of Palmer Amaranth, Broadleaf Signalgrass, Common Barnyardgrass, Yellow Nutsedge, and Eclipta. Survival ratings were taken by counting the number of alive and dead plants at the time of the reading. The pytotoxicity of each treatment was also evaluated by examining the soybeans at 11 and 12 DAT. All data was analyzed using Bartlett's test and with p value of […] for determining significance of the results. The Effect of Saflufenacil, Flumioxazin and 2,4-D on Weeds.”
Applicants used the widely accepted fraction method for determining synergy. The fraction method involves not merely adding together the individual control percentages together, as that will often be greater than 100%. The fraction method involves taking the control as a decimal value (X), multiplying the 1 minus X values together, then taking the “1 minus” value to get the calculated control as a decimal value. For example, if two products give 60% control, the additive or predicted value would be 84% and not 120%. See Rao, V. S., Principles of Weed Science, Second Edition, (2000) 351-352, and the illustrative example below.

[2] = test system: Large Crabgrass; test: Field test, post emergence weed control: Large Crabgrass; assay type: in vivo, Digitaria sanguinalis; details: 11 DAT, MSO 1% v/v
Procedure: as §1, §2, §3

[3] = test system: Palmer Amaranth; test: Field test, post emergence weed control: Palmer Amaranth; assay type: in vivo, Amaranthus palmeri; details: 12 DAT, MSO 1% v/v
Procedure: as §1, §2, §3

[4] = test system: Broadleaf Signalgrass; test: Field test, post emergence weed control: Broadleaf Signalgrass; assay type: in vivo, Brachiaria platyhylla; details: 12 DAT, MSO 1% v/v
Procedure: as §1, §2, §3

[5] = test system: Common Barnyardgrass; test: Field test, post emergence weed control: Common Barnyardgrass; assay type: in vivo, Echinochloa crus-galli; details: 12 DAT, MSO 1% v/v
Procedure: as §1, §2, §3

[6] = test system: Yellow Nutsedge; test: Field test, post emergence weed control: Yellow Nutsedge; assay type: in vivo, Cyperus esculentus; details: 12 DAT, MSO 1% v/v
Procedure: as §1, §2, §3

[7] = test system: Eclipta; test: Field test, post emergence weed control: Eclipta; assay type: in vivo, Eclipta prostrata; details: 12 DAT, MSO 1% v/v
Procedure: as §1, §2, §3

[8] = no saflufenacil, flumioxazin 0.064 lb ai/acre, 2,4-D 0.5 lb ai/acre
[9] = saflufenacil 0.011 lb ai/acre (flumioxazin 0.064, 2,4-D 0.5 lb ai/acre where in the treatment)
[10] = saflufenacil 0.017 lb ai/acre (flumioxazin 0.064, 2,4-D 0.5 lb ai/acre where in the treatment)
[11] = saflufenacil 0.022 lb ai/acre (flumioxazin 0.064, 2,4-D 0.5 lb ai/acre where in the treatment)

O=C(O)COc1ccc(Cl)cc1Cl [2,4-D, 2,4-Dichlorophenoxyacetic acid]
Effect on Weeds, Plants: Horseweed [1, 8]: 11.7
control (Actual % Control) [1]: 12%
% Alone [1]: 12.00%
Effect on Weeds, Plants: Large Crabgrass [2, 8]: 50.0
Effect on Weeds, Plants: Palmer Amaranth [3, 8]: 91.0
Effect on Weeds, Plants: Broadle Signalgrass [4, 8]: 21.7
Effect on Weeds, Plants: Common Barnyardgrass [5, 8]: 15.0
Effect on Weeds, Plants: Yellow Nutsedge [6, 8]: 8.3
Effect on Weeds, Plants: Eclipta [7, 8]: 91.0

C#CCN1C(=O)COc2cc(F)c(N3C(=O)C4=C(CCCC4)C3=O)cc21 [Flumioxazin, 2-[7-fluoro-3,4-dihydro-3-oxo-4-(2-propynyl)-2H-1,4-benzoxazin-6-yl]-4,5,6,7-tetrahydro-1H-isoindole-1,3(2H)-dione]
Effect on Weeds, Plants: Horseweed [1, 8]: 15.0
control (Actual % Control) [1]: 15%
% Alone [1]: 15.00%
Effect on Weeds, Plants: Large Crabgrass [2, 8]: 70.0
Effect on Weeds, Plants: Palmer Amaranth [3, 8]: 96.0
Effect on Weeds, Plants: Broadle Signalgrass [4, 8]: 45.0
Effect on Weeds, Plants: Common Barnyardgrass [5, 8]: 45.0
Effect on Weeds, Plants: Yellow Nutsedge [6, 8]: 42.5
Effect on Weeds, Plants: Eclipta [7, 8]: 86.3

CC(C)N(C)S(=O)(=O)NCc1cc(-n2c(=O)cc(C(F)(F)F)n(C)c2=O)c(F)cc1Cl [S, N′-[2-chloro-4-fluoro-5-(3-methyl-2,6-dioxo-4-(trifluoromethyl)-3,6-dihydro-1(2H)-pyrimidinyl)benzyl]-N-isopropyl-N-methylsulfamide]
Effect on Weeds, Plants: Horseweed [1, 9]: 66.7
Effect on Weeds, Plants: Horseweed [1, 10]: 78.3
Effect on Weeds, Plants: Horseweed [1, 11]: 86.7
control (Actual % Control) [1]: 67%
% Alone [1]: 67.00%
Effect on Weeds, Plants: Large Crabgrass [2, 9]: 43.3
Effect on Weeds, Plants: Large Crabgrass [2, 10]: 60.0
Effect on Weeds, Plants: Large Crabgrass [2, 11]: 56.7
Effect on Weeds, Plants: Palmer Amaranth [3, 9]: 91.0
Effect on Weeds, Plants: Palmer Amaranth [3, 10]: 91.3
Effect on Weeds, Plants: Palmer Amaranth [3, 11]: 96.0
Effect on Weeds, Plants: Broadle Signalgrass [4, 9]: 31.7
Effect on Weeds, Plants: Broadle Signalgrass [4, 10]: 45.0
Effect on Weeds, Plants: Broadle Signalgrass [4, 11]: 31.7
Effect on Weeds, Plants: Common Barnyardgrass [5, 9]: 31.7
Effect on Weeds, Plants: Common Barnyardgrass [5, 10]: 41.7
Effect on Weeds, Plants: Common Barnyardgrass [5, 11]: 25.0
Effect on Weeds, Plants: Yellow Nutsedge [6, 9]: 23.3
Effect on Weeds, Plants: Yellow Nutsedge [6, 10]: 35.0
Effect on Weeds, Plants: Yellow Nutsedge [6, 11]: 30.0
Effect on Weeds, Plants: Eclipta [7, 9]: 83.0
Effect on Weeds, Plants: Eclipta [7, 10]: 91.3
Effect on Weeds, Plants: Eclipta [7, 11]: 93.0
